Read-outs that look alike come from different tables or passages of the source.
Columns and labels:
MG-63 cells = test: Cytotoxicity test against osteoblast (MTT); format: cell-based, human
Method in brief: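 MG-63 human osteosarcoma cells exposed to 0.1, 0.3, 1.0 and 3.0 μM compound in DMEM with 10% FBS. Osteoclast progenitors in the same text were run at 2, 4 and 8 μM, 48 h, α-MEM + 20 ng/ml M-CSF, 37 °C; MTT added 3 h before end, A550 as % of control.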

rats = test: In vivo acute toxicity test (LD50); details: single dose, 2 weeks observation
Description: In order to determine the acute toxicities of the compounds prepared in Examples, 6-week old specific pathogen-free (SPF) rats each weighing […] were divided into groups of 10 rat each.
In case of subcutaneous administration, each of the compounds was dissolved in 5% PEG400 solution to a concentration of 20 mg/ml, the resulting solution was serially diluted with 5% PEG400 solution to concentrations of 5, 2.5, 1.25 and 0.625 mg/ml, and the dilutions were subcutaneously injected once to the rats at a dose of 10 ml/kg body weight.
In case of oral administration, each of the compounds was dissolved in soybean oil to a concentration of 180 mg/ml, the resulting solution was serially diluted with soybean oil to concentrations of 80, 20 and 5 mg/ml, and the dilutions were orally administered once to the rats at a dose of 20 ml/kg body weight. […]
During 2 weeks after the administration of the compounds, the death rate, clinical symptoms and weight changes of the rats were observed, and hematological and biochemical tests on blood samples were performed. Then, the rats were sacrificed and the internal organs were visually examined to check any abnormal signs in the organs of chest and abdomen.

[1] = In vitro pharmacokinetics: metabolic stability in liver microsome; format: in vitro ADME; details: human liver microsome 1 mg/ml, 20 μM compound; for half-life at 20 µM: liver microsomes
Description: Metabolic stabilities of the compounds of the Examples were examined by employing microsome samples prepared from the human liver.
Each 20 μM of the compounds were reacted with 1 mg/ml of liver microsome and the half-lives and one-hour stabilities of the compounds were determined.

[2] = system: osteoclast (TRAP-positive multinuclear cell) formation; test: Inhibitory effect on osteoclast formation (TRAP staining); format: cell-based, mice; details: Mus musculus, Osteoclast, compared to control, read-out: Osteoclast formation inhibitory effects (%)
Method in brief: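 Non-adherent bone marrow cells from 7–9-week-old female mice, 2×10^5 per well, cultured 8 days with M-CSF (20 ng/ml), RANKL (30 ng/ml) and compound at 0.3, 1.0 or 3 μM. Formation scored by TRAP staining after fixation, 1 h at 37 °C, pH 5.0.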

[3] = system: female mice with osteoporosis induced by ovariectomy; test: Bone mineral density (BMD) of ovariectomized multiparous mice; format: in vivo; details: for decrease of BMD: after 8 weeks
Description: The effect of Compound Nos. 274 and 388 of the present invention on BMD of female mice with osteoporosis induced by ovariectomy was examined as follows.
Specifically, after anesthetizing female mice used as a control by abdominal administration with a mixture of 10 mg/kg body weight of Ketamin HCl (Ketara) and 0.15 ml/kg body weight of 2% Xylazine HCl (Roupun), the lumbar dorsum of each mouse was shaved bilaterally and the exposed skin was prepared for aseptic surgery by a 10% povidone-iodine scrub followed by a 70% alcohol wipe. A 1-cm incision was made in the central region of the abdomen, and the ovaries were identified with caution not to damage the main organs such as the liver and diaphragm. The ovaries were ligated with a suture thread, and then severed. Thereafter, each organ was relocated to its original position, and the incision was closed with a suture thread in an interrupted pattern. After ovariectomy, the mice were injected with 0.088 mg/kg body weight of gentamicin to prevent infection.
To investigate the change in BMD of the mice, bone mineral density was measured before the ovariectomy and every two weeks for 8 weeks after the ovariectomy using a bone mineral densitometer, XCT 540 Research SA (Stratec, Germany). Specifically, BMD measurement was made at a voxel size of 0.1 mm×0.1 mm, threshold values of 280 mg/cm^2 for cancellous bone and 500 mg/cm^2 for compact bone, and the analysis sites at the proximal tibias were determined by Scout scans (10 mm/sec). BMD was measured at three slices at the determined sites by CT scans (7 mm/sec), and the measurement was performed twice or more at the same site.
Multiparous mice each weighing […] were subjected to ovariectomy in accordance with the method of (3-1). From the 2nd day to 12th week after the ovariectomy, the mice were injected subcutaneously once a day with 0.5 and 1 mg/kg body weight/day of Compound Nos. 274 and 388, respectively. Alternatively, the mice were administered orally with 2.5 and 7.5 mg/kg body weight/day of Compound Nos. 274 and 388. BMD was measured before the ovariectomy, and during the period of the 2nd week to 11th week after the ovariectomy.

CO/C=C(/C(=O)OC)c1ccc(Cl)cc1COc1ccc(OCCOC)cc1 [Compound No. 274, (E)-methyl-2-(2-((4-(2-methoxyethoxy)phenoxy)methyl)-4-chlorophenyl)-3-methoxyacrylate]
relative absorbance relative to that of the control (set as 100), MTT (MG-63 cells; 0.11 uM): 113 | relative absorbance relative to that of the control (set as 100), MTT (MG-63 cells; 0.33 uM): 108 | relative absorbance relative to that of the control (set as 100), MTT (MG-63 cells; 1 uM): 106 | relative absorbance relative to that of the control (set as 100), MTT (MG-63 cells; 3 uM): 94 | LD50 (rats; PO): 460 mg/kg body weight | LD50 (rats; SC): 11 mg/kg body weight | One-hour stability [1]: 72% | half-life at 20 µM [1]: > 180 min | inhibition at 0.3 µM ([2]; 192 h, 0.3 μM, 8 days culture with M-CSF and RANKL): 100% | inhibition at 1 µM ([2]; 192 h, 1.0 μM, 8 days culture with M-CSF and RANKL): 100% | inhibition at 3 µM ([2]; 192 h, 3.0 μM, 8 days culture with M-CSF and RANKL): 100% | increase of BMD ([3]; oral administration (2.5 and 7.5 mg/kg body weight/day), FIGS. 1a and 1b): 0.8% | change of BMD ([3]; subcutaneous injection once a day (0.5 and 1 mg/kg body weight/day), FIGS. 1a and 1b): no decrease of BMD

CO/C=C(/C(=O)OC)c1ccccc1COc1cccc(N2CCCCC2)c1 [Compound No. 388, (E)-methyl-2-[2-((3-(piperidin-1-yl)phenoxy)methyl)phenyl]-3-methoxyacrylate]
relative absorbance (MTT) relative to control (set as 100) (MG-63 cells; 0.33 μM compound): 105 | relative absorbance (MTT) relative to control (set as 100) (MG-63 cells; 1 μM compound): 84 | relative absorbance (MTT) relative to control (set as 100) (MG-63 cells; 3 μM compound): 81 | LD50 (rats; PO): 110-130 mg/kg body weight | half-life at 20 µM [1]: 30.7 min | inhibition at 0.1 µM ([2]; 0.1 μM (Table 4b)): 0% | inhibition at 0.3 µM ([2]; 0.3 μM (Table 4b)): 99% | inhibition at 1 µM ([2]; 1 μM (Table 4b)): 100% | inhibition at 3 µM ([2]; 3 μM (Table 4b)): 100% | decrease of BMD ([3]; oral administration 2.5 mg/kg): 10.6% | decrease of BMD ([3]; oral administration 7.5 mg/kg): 10.2% | decrease of BMD ([3]; subcutaneous injection 0.5 mg/kg): 5.0% | decrease of BMD ([3]; subcutaneous injection 1 mg/kg): 6.7%

— patent US7879835B2 (Korea Research Institute of Chemical Technology, priority 2004, dated 2011)
